ChEMBL document CHEMBL6083285 (J Med Chem, 2024)

Key:
[1] = Inhibition of NLRP3 inflammasome activation mediated pyroptosis in LPS-stimulated human THP-1 cells preincubated for 3 hrs followed by nigericin addition and measured after 1 hrs by resazurin dye based assay; assay type: cell-based
[2] = Inhibition of NLRP3 inflammasome activation in LPS-stimulated human whole blood assessed as reduction in IL-1beta release preincubated for 3 hrs followed by nigericin addition and measured after 1 hrs by Alphalisa method; assay type: tissue-based
[3] = Half-life in male Sprague-Dawley rat at 1 mg/kg, iv measured after 24 hrs by LC-MS analysis; assay type: ADME, organism-based; conditions: in vivo
MDR1 [4] = assay: Permeability in MDCKII-MDR1 cells at 5 uM incubated for 2 hrs by LC-MS/MS analysis; assay type: ADME, cell-based, Canis lupus familiaris; conditions: dog, MDCK-MDR1, read-out: permeability
MDR1 [5] = assay: Efflux ratio of permeability in MDCKII-MDR1 cells at 5 uM incubated for 2 hrs by LC-MS/MS analysis; assay type: ADME, cell-based, Canis lupus familiaris; conditions: dog, MDCK-MDR1
[6] = Metabolic stability in rat hepatocytes assessed as intrinsic clearance measured per 10^6 cells at 100 uM incubated upto 60 mins by UPLC-MS/MS analysis; assay type: ADME, cell-based, Hepatocyte; conditions: read-out: CLH
BCRP [7] = assay: Permeability in MDCK-II-BCRP cells at 5 uM incubated for 2 hrs by LC-MS/MS analysis; assay type: ADME, cell-based, Canis lupus familiaris; conditions: dog, read-out: permeability
[8] = Clearance in male Sprague-Dawley rat at 1 mg/kg, iv measured after 24 hrs by LC-MS analysis; assay type: ADME, organism-based; conditions: in vivo
MDR1 [9] = assay: Permeability across apical to basolateral side in pig LLC-PK1 cells transfected with MDR1; assay type: ADME, cell-based, Sus scrofa; conditions: read-out: permeability
MDR1 [10] = assay: Efflux ratio of permeability across apical to basolateral side in pig LLC-PK1 cells transfected with MDR1; assay type: ADME, cell-based, Sus scrofa
[11] = Metabolic stability in human hepatocytes assessed as intrinsic clearance measured per 10^6 cells at 100 uM incubated upto 60 mins by UPLC-MS/MS analysis; assay type: ADME, cell-based, Hepatocyte; conditions: read-out: CLH
[12] = Lipophilicity, logD of compound at pH 7.4; assay type: physicochemical; conditions: buffer
[13] = Protein binding in rat plasma assessed as unbound fraction at 5 uM incubated for 4 hrs by UPLC-MS analysis; assay type: ADME, cell-free
[14] = Protein binding in mouse plasma assessed as unbound fraction at 5 uM incubated for 4 hrs by UPLC-MS analysis; assay type: ADME, cell-free
BCRP [15] = assay: Efflux ratio of permeability in MDCK-II-BCRP cells at 5 uM incubated for 2 hrs by LC-MS/MS analysis; assay type: ADME, cell-based, Canis lupus familiaris; conditions: dog
[16] = Protein binding in human plasma assessed as unbound fraction at 5 uM incubated for 4 hrs by UPLC-MS analysis; assay type: ADME, cell-free
[17] = Volume of distribution at steady state in male Sprague-Dawley rat at 1 mg/kg, iv measured after 24 hrs by LC-MS analysis; assay type: ADME, organism-based; conditions: in vivo, read-out: Vdss
[18] = AUC (0 to infinity) in male Sprague-Dawley rat at 1 mg/kg, iv measured after 24 hrs by LC-MS analysis; assay type: ADME, organism-based; conditions: in vivo
[19] = Metabolic stability in pooled rat liver microsomes assessed as intrinsic clearance at 1 uM measured upto 45 mins in presence of NADPH by UPLC-MS/MS analysis; assay type: ADME, Microsome; conditions: read-out: CLH
[20] = Metabolic stability in pooled human liver microsomes assessed as intrinsic clearance at 1 uM measured upto 45 mins in presence of NADPH by UPLC-MS/MS analysis; assay type: ADME, Microsome; conditions: read-out: CLH
Homo sapiens = species on record: Homo sapiens; assay: Selectivity ratio of IC50 for inhibition of NLRP3 inflammasome activation in LPS-stimulated human whole blood assessed as reduction in IL-1beta release to IC50 for inhibition of NLRP3 inflammasome activation mediated pyroptosis in LPS-stimulated human THP-1 cells

With `COc1cc(-c2ccc3c(c2NC(=O)NS(=O)(=O)c2nn(C(C)C)cc2F)CCC3)ccn1` the IC50 [1] was 8 nM and the IC50 [2] was 230 nM.

`CCC1(C)COc2cc(ccn2)-c2cccc(C(C)C)c2CC(=O)NS(=O)(=O)c2cnn1c2` (configuration not stated) gave an IC50 [1] of 275 nM and an IC50 [2] of 241 nM.

Work on `CC1(C)COc2cc(ccn2)-c2ccc3c(c2NC(=O)NS(=O)(=O)c2nn1cc2F)CCC3` yielded an IC50 [1] of 17 nM and an IC50 [2] of 168 nM.

With `CC(C)c1cccc2c1CC(=O)NS(=O)(=O)c1cn(cn1)C(C)(C)COc1cc-2ccn1` the IC50 [1] was 721 nM.

Compound `COc1cc(-c2cc(F)cc(C(C)C)c2CC(=O)NS(=O)(=O)c2cnn(C3CC3)c2)ccn1` has a half-life [3] of 16.4 h, a Papp at 2 h, 5 µM (MDR1 [4]) of 8.8 ×10⁻⁶ cm/s and an efflux ratio at 2 h, 5 µM (MDR1 [5]) of 21. The hepatocyte CLint at 100 µM [6] was < 8 µL/min/1e6 cells, the Papp at 2 h, 5 µM (BCRP [7]) was 5.3 ×10⁻⁶ cm/s and the clearance [8] was 11 mL/min/kg. The Papp A→B (MDR1 [9]) was 0.17 ×10⁻⁶ cm/s, the efflux ratio (MDR1 [10]) was 3.6 and the hepatocyte CLint at 100 µM [11] was < 8 µL/min/1e6 cells. It also gave a logD [12] of 0.9, a fraction unbound at 4 h, 5 µM [13] of 0.019 and a fraction unbound at 4 h, 5 µM [14] of 0.017. The IC50 [1] was 533 nM, the efflux ratio at 2 h, 5 µM (BCRP [15]) was 38 and the fraction unbound at 4 h, 5 µM [16] was 0.01. The Vd [17] was 13.3 L/kg, the AUC(0-inf) [18] was 1510 ng·h/mL and the microsomal CLint at 1 µM [19] was < 15.4 µL/min/mg.

`CC(C)n1ccc(S(=O)(=O)NC(=O)Nc2c(-c3ccnc(OC4CCN(C)C4)c3)ccc3c2CCC3)n1` (configuration not stated) showed a logD [12] of -0.5 and an IC50 [1] of 800 nM.

Compound `CC(C)c1cccc2c1CC(=O)NS(=O)(=O)c1cnn(c1)C1(CC1)COc1cc-2ccn1` has an IC50 [1] of 567 nM and an IC50 [2] of 421 nM.

`CC(C)c1cccc2c1CC(=O)NS(=O)(=O)c1cnn(c1)C(C)(C1CC1)COc1cc-2ccn1` (configuration not stated) showed an IC50 [1] of 31 nM and an IC50 [2] of 441 nM.

`CC1(C)COc2cc(ccn2)-c2c(F)cc3c(c2NC(=O)NS(=O)(=O)c2nn1cc2F)CCC3` showed an IC50 [1] of 8 nM and an IC50 [2] of 125 nM.

In the case of `COc1cc(-c2ccc3c(c2NC(=O)NS(=O)(=O)c2cnn(C(C)C)n2)CCC3)ccn1`, the IC50 [1] is reported as 58 nM and the IC50 [2] is reported as 814 nM.

Work on `COc1cc(-c2ccc3c(c2NC(=O)NS(=O)(=O)c2ccnc(C(C)C)c2)CCC3)ccn1` yielded an IC50 [1] of 23 nM and an IC50 [2] of 1600 nM.

`CC1(C)COc2cc(ccn2)-c2ccc3c(c2NC(=O)NS(=O)(=O)c2ccn1n2)CCC3` showed an IC50 [1] of 86 nM and an IC50 [2] of 270 nM.

Compound `COc1cc(-c2ccc3c(c2NC(=O)NS(=O)(=O)c2cn(C(C)C)cn2)CCC3)ccn1` has an IC50 [1] of 61 nM and an IC50 [2] of 621 nM.

Compound `O=C1Nc2c(ccc3c2CCC3)-c2ccnc(c2)OCCCCCCn2ccc(n2)S(=O)(=O)N1` has an IC50 [1] of 215 nM and an IC50 [2] of 1570 nM.

With `COc1cc(-c2ccc3c(c2NC(=O)NS(=O)(=O)c2ccn(C(C)C)n2)CCC3)ccn1` the logD [12] was 0.09, the microsomal CLint at 1 µM [20] was 12 µL/min/mg and the IC50 [1] was 51 nM. For the same compound, the IC50 [2] was 412 nM.

`CC(C)c1cccc2c1CC(=O)NS(=O)(=O)c1ccn(n1)C(C)(C)COc1cc-2ccn1` showed an IC50 [1] of 1700 nM.

With `CC(C)n1ccc(S(=O)(=O)NC(=O)Nc2c(-c3ccnc(Oc4ccccc4)c3)ccc3c2CCC3)n1` the logD [12] was 1.2, the Ratio IC50 (Homo sapiens) was 16 and the IC50 [1] was 59 nM. The IC50 [2] was 5940 nM.

Compound `CC(C)n1ccc(S(=O)(=O)NC(=O)Nc2c(-c3ccnc(OC4CCN(C)CC4)c3)ccc3c2CCC3)n1` has a logD [12] of -0.02, an IC50 [1] of 46 nM and an IC50 [2] of 440 nM.

`CC(C)c1cccc2c1CC(=O)NS(=O)(=O)c1nn(cc1F)C(C)(C)COc1cc-2ccn1` gave an IC50 [1] of 480 nM.

`COc1cc(-c2ccc3c(c2NC(=O)NS(C)(=O)=O)CCC3)ccn1` gave an IC50 [1] of 1010 nM.
